Columns and labels:
Type in all cases: cell-based
Enterobacterales = assay: Antibacterial surveillance of clinical isolates (MIC50/90)
In short: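 SENTRY clinical isolates from the United States and Europe (1:1): 20 MSSA, 30 MRSA, 103 P. aeruginosa, plus 101 Enterobacterales with genetically defined aminoglycoside-resistance mechanisms. MICs came from CLSI broth microdilution; MIC50 and MIC90 are the values inhibiting ≥50% and ≥90% of isolates per set.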

[1] = test system: clinical isolates of multi-drug resistant bacterial pathogens including A. baumannii, MRSA, P. aeruginosa, and CRE; assay: MIC secondary panel, overall statement; details: read-out: minimum inhibitory concentration (MIC) values
Experimental: (§1) Minimum inhibitory concentrations for representative example compounds herein were determined by a broth microdilution method in accordance with the Clinical and Laboratory Standards Institute (CLSI) guidelines. In brief, organism suspensions were adjusted to a 0.5 McFarland standard to yield a final inoculum between 3×10^5 and 7×10^5 colony-forming units (CFU)/mL. The inoculum was prepared by suspension of a colony from an agar plate that was prepared the previous day. Compound dilutions and inoculum were prepared in sterile, cation adjusted Mueller-Hinton Broth (Beckton Dickinson).
(§2) Bacteria were suspended in sterile saline and added to each assay plate to obtain a final concentration of 5×10^5 CFU/mL. An inoculum volume of 100 μL was added to wells containing 100 μL of broth with 2-fold serial dilutions of the test compound. All inoculated microdilution trays were incubated in ambient air at 35° C. for 18-24 hours. Following incubation, the lowest concentration of the compound that prevented visible growth (OD 600 nm<0.05) is recorded was the MIC. […] Performance of the assay was monitored by the use of laboratory quality-control strains and a standard compound with a defined MIC spectrum (neomycin), in accordance with CLSI guidelines.
Several compounds of the disclosure (Compounds 1, 2, 3, and 6) were further evaluated against a secondary panel of clinical isolates of multi-drug resistant bacterial pathogens including A. baumannii, methicillin-resistant Staphylococcus aureus (MRSA), P. aeruginosa, and carbapenem-resistant Enterobacteriaceae (CRE).

[2] = test system: all sets of organisms tested (SENTRY clinical isolates); assay: Antibacterial surveillance, overall statement; details: all sets of organisms tested (Table 3); read-out: MIC50,90 values
Experimental: as §1, §2
Several compounds of the disclosure (Compound 1, 2, and 3) were further evaluated against several hundred bacterial isolates (isolated in the United States and Europe, 1:1) selected from the SENTRY Antimicrobial Surveillance Program (JMI Laboratories, North Liberty, Iowa). The set of clinical isolates included 300 randomly selected Enterobacterales, 103 randomly selected P. aeruginosa, 100 randomly selected A. baumannii-calcoaceticus, 20 randomly selected Methicillin-sensitive S. aureus (MSSA), and 30 randomly selected Methicillin-resistant S. aureus (MRSA). In addition, 101 Enterobacterales and 50 P. aeruginosa isolates with genetically defined mechanisms of aminoglycoside resistance were included. […]

SMILES | MIC50 (Enterobacterales) | MIC90 (Enterobacterales) | MIC [1] | MIC50 [2]
NC[C@@H]1CC[C@@H](N)[C@@H](O[C@@H]2[C@@H](N)[C@H](O)[C@@H](NC(=O)[C@@H](O)[C@H](F)CN)[C@H](O)[C@H]2O[C@@H]2O[C@H](CO)[C@@H](O[C@H]3O[C@@H](CN)[C@@H](O)[C@H](O)[C@H]3N)[C@H]2O)O1 [Compound 1, (2R,3R)-4-amino-N-((1R,2S,3S,4R,5R,6S)-3-amino-5-(((2S,3R,4S,5R)-4-(((2R,3R,4R,5S,6S)-3-amino-6-(aminomethyl)-4,5-dihydroxytetrahydro-2H-pyran-2-yl)oxy)-3-hydroxy-5-(hydroxymethyl)tetrahydrofuran-2-yl)oxy)-4-(((2R,3R,6S)-3-amino-6-(aminomethyl)tetrahydro-2H-pyran-2-yl)oxy)-2,6-dihydroxycyclohexyl)-3-fluoro-2-hydroxybutanamide] | < 16 µg/mL | < 16 µg/mL | ≤ 16 µg/mL | ≤ 16 µg/mL
NCC[C@H](O)C(=O)N[C@@H]1[C@@H](O)[C@H](N)[C@@H](O[C@H]2O[C@H](CN)CC[C@H]2N)[C@H](O[C@@H]2O[C@H](CO)[C@@H](O[C@H]3O[C@@H](CN)[C@@H](O)[C@H](O)[C@H]3N)[C@H]2O)[C@H]1O [Compound 2, (S)-4-amino-N-((1R,2S,3S,4R,5R,6S)-3-amino-5-(((2S,3R,4S,5R)-4-(((2R,3R,4R,5S,6S)-3-amino-6-(aminomethyl)-4,5-dihydroxytetrahydro-2H-pyran-2-yl)oxy)-3-hydroxy-5-(hydroxymethyl)tetrahydrofuran-2-yl)oxy)-4-(((2R,3R,6S)-3-amino-6-(aminomethyl)tetrahydro-2H-pyran-2-yl)oxy)-2,6-dihydroxycyclohexyl)-2-hydroxybutanamide] | < 16 µg/mL | < 16 µg/mL | ≤ 16 µg/mL | ≤ 16 µg/mL
C[C@H](N)[C@@H]1CC[C@@H](N)[C@@H](O[C@@H]2[C@@H](N)[C@H](O)[C@@H](NC(=O)[C@@H](O)[C@H](F)CN)[C@H](O)[C@H]2O[C@@H]2O[C@H](CO)[C@@H](O[C@H]3O[C@@H](CN)[C@@H](O)[C@H](O)[C@H]3N)[C@H]2O)O1 [Compound 3, (2R,3R)-4-amino-N-((1R,2S,3S,4R,5R,6S)-3-amino-4-(((2R,3R,6S)-3-amino-6-((S)-1-aminoethyl)tetrahydro-2H-pyran-2-yl)oxy)-5-(((2S,3R,4S,5R)-4-(((2R,3R,4R,5S,6S)-3-amino-6-(aminomethyl)-4,5-dihydroxytetrahydro-2H-pyran-2-yl)oxy)-3-hydroxy-5-(hydroxymethyl)tetrahydrofuran-2-yl)oxy)-2,6-dihydroxycyclohexyl)-3-fluoro-2-hydroxybutanamide] | < 16 µg/mL | < 16 µg/mL | ≤ 16 µg/mL | ≤ 16 µg/mL
C[C@H](N)[C@@H]1CC[C@@H](N)[C@@H](O[C@@H]2[C@@H](N)[C@H](O)[C@@H](NC(=O)[C@@H](O)CCN)[C@H](O)[C@H]2O[C@@H]2O[C@H](CO)[C@@H](O[C@H]3O[C@@H](CN)[C@@H](O)[C@H](O)[C@H]3N)[C@H]2O)O1 [Compound 6, (S)-4-Amino-N-((1R,2S,3S,4R,5R,6S)-3-Amino-4-(((2R,3R,6S)-3-Amino-6-((S)-1-Aminoethyl)Tetrahydro-2H-Pyran-2-Yl)Oxy)-5-(((2S,3R,4S,5R)-4-(((2R,3R,4R,5S,6S)-3-Amino-6-(Aminomethyl)-4,5-Dihydroxytetrahydro-2H-Pyran-2-Yl)Oxy)-3-Hydroxy-5-(Hydroxymethyl)Tetrahydrofuran-2-Yl)Oxy)-2,6-Dihydroxycyclohexyl)-2-Hydroxybutanamide] |  |  | ≤ 16 µg/mL | 

Source: patent US20250032524A1, “BROAD SPECTRUM AMINOGLYCOSIDES AND USES THEREOF” (REVAGENIX, INC., priority 2022, published 2025)
